Legend:
Test in all cases: CYP phenotyping panel (PTX 251D clearance)
Type in all cases: in vitro ADME
human recombinant CYP3A4 = target: T1, human recombinant CYP3A4 (Homo sapiens, UniProt P08684); conditions: 1E-07 M PTX 251D; after 60 minutes
T1 construct: Eurofins Discovery Services (Eurofins Panlabs Inc) ran the assay
Experimental: (§1) Assays for human CYP activity (CYP phenotyping), CYP2D6 metabolite discovery (metID), ion channel inhibition (CiPA), and G-protein coupled receptor (GPCR) activity (gpcrMAX) were performed through Eurofins Discovery Services (Eurofins Panlabs Inc, St. Charles MO, USA). In the CYP phenotyping panel, human recombinant CYP1A2, CYP2B6, CYP2C8, CYP2C9, CYP2C19, CYP2D6, and CYP3A4 were included in the assay. A concentration of 1E-07 M of PTX 251D was tested, and the percent compound remaining was quantified at 0, 15, 30, 45, and 60 minutes using HPLC-MS/MS. As a positive control, a reference compound was used for each CYP tested (see S1 File for results). In the CYP2D6 metabolism assay, human recombinant CYP2D6 was incubated with an initial concentration of 10 μM and metabolites were quantified after 90 minutes using LC-MS/MS. Two replicates were used for the CYP phenotyping panel and one replicate was used for CYP2D6 metabolite assay. The CiPA assay was a cell-based QPatch on voltage-gated sodium channel NaV1.5 (peak and late/agonist), voltage-gated potassium channels Kv4.3/KChIP2, hERG, KCNQ1/minK, Kir2.1, and voltage-gated calcium channel Cav1.2. The concentrations of PTX 251D assayed were 3, 10, and 30 μM, and a reference compound for each channel was used (see S1 File for results and individual QPatch parameters). In the gpcrMAX assay a panel of 165 GPCRs was tested through the DiscoverX PathHunter beta-arrestin enzyme fragment complementation technology, and a concentration of 10 μM PTX 251D was tested for both agonist and antagonist activity along with a reference compound for each GPCR (see S1 File for results).

human recombinant CYP2D6 = target: T2, human recombinant CYP2D6 (Homo sapiens, UniProt P10635); conditions: 1E-07 M PTX 251D
T2 construct: Eurofins Discovery Services (Eurofins Panlabs Inc) ran the assay
T2 sequence (P10635 whole entry): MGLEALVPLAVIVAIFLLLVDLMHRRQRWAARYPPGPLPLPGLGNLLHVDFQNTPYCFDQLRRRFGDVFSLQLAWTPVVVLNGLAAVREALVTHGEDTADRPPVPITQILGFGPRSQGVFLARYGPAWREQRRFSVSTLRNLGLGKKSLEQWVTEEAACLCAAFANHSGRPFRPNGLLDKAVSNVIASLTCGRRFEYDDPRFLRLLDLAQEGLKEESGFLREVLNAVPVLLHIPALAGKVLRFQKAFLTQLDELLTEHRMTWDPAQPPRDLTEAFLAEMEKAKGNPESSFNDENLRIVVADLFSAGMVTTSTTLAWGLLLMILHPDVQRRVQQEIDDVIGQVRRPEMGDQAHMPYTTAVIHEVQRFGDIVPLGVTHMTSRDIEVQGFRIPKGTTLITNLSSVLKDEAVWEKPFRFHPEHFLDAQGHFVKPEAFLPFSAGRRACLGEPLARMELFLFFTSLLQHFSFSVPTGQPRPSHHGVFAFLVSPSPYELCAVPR
Experimental: as §1

human recombinant CYP2C8 = target: T3, human recombinant CYP2C8 (Homo sapiens, UniProt P10632); conditions: 1E-07 M PTX 251D; after 60 minutes
T3 construct: Eurofins Discovery Services (Eurofins Panlabs Inc) ran the assay
T3 sequence (P10632 1-490): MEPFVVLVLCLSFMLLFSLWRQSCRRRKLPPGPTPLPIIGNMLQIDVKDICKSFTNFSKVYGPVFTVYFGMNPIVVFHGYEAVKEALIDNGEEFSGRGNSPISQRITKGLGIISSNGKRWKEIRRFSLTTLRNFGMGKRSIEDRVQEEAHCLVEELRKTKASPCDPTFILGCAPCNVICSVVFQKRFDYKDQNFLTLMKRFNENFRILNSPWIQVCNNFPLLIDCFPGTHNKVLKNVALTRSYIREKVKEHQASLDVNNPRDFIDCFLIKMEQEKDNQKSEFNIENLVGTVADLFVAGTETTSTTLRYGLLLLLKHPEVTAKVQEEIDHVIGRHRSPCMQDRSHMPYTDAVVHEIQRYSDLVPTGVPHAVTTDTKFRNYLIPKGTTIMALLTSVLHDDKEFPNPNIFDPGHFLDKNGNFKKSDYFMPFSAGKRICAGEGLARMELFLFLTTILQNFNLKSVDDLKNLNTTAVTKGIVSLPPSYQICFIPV
Experimental: as §1

human recombinant CYP1A2 = target: T4, human recombinant CYP1A2 (Homo sapiens, UniProt P05177); conditions: 1E-07 M PTX 251D; after 60 minutes
T4 construct: Eurofins Discovery Services (Eurofins Panlabs Inc) ran the assay
T4 sequence (P05177 1-516): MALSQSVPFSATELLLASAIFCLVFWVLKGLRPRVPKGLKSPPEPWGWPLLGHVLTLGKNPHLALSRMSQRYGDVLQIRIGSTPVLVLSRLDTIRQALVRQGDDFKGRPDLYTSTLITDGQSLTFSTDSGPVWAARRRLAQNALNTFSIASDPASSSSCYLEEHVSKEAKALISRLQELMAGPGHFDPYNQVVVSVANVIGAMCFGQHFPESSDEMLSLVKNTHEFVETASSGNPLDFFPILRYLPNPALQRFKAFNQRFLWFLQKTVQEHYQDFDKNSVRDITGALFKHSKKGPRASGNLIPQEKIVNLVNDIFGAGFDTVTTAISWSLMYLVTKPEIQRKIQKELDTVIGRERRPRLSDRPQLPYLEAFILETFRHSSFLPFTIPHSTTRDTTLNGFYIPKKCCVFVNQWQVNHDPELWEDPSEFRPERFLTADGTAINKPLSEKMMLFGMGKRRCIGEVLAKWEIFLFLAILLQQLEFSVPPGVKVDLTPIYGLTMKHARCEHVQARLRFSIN
Experimental: as §1

human recombinant CYP2B6 = target: T5, human recombinant CYP2B6 (Homo sapiens, UniProt P20813); conditions: 1E-07 M PTX 251D; after 60 minutes
T5 construct: Eurofins Discovery Services (Eurofins Panlabs Inc) ran the assay
T5 sequence (P20813 1-491): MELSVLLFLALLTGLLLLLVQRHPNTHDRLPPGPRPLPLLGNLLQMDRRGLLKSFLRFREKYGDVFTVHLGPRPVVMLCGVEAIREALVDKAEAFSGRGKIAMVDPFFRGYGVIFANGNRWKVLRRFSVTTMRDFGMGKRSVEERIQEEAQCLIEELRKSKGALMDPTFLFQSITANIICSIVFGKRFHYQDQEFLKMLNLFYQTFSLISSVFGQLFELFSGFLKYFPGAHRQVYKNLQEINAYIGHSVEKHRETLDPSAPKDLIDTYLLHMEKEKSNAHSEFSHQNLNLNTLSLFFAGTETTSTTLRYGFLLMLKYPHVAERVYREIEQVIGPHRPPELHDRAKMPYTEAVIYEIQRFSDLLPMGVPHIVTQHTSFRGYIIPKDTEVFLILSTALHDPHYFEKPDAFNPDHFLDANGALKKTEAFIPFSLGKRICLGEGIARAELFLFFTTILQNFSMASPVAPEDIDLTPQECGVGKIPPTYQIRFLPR
Experimental: as §1

T1 sequence (P08684 whole entry): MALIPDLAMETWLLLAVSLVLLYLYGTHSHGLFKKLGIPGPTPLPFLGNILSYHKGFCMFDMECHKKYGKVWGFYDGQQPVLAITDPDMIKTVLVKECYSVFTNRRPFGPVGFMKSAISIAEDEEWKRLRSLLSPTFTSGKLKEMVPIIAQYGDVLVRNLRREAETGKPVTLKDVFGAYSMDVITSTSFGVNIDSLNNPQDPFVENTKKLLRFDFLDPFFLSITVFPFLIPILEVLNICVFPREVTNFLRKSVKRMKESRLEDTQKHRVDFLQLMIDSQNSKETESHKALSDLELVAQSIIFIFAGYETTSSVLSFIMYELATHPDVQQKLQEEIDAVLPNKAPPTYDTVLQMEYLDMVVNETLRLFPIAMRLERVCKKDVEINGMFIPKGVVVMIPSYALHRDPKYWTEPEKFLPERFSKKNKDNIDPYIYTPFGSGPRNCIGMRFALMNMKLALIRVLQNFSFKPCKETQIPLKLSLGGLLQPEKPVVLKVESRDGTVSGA

For `CCCCC(C)C=C1CN2CCCC2C(C)(O)C1` (stereo not drawn) [PTX 251D, pumiliotoxin (PTX 251D)], the “clearance of PTX 251D by CYP3A4” value (human recombinant CYP3A4) was “minimal clearance”, the “PTX 251D remaining after incubation with CYP2D6” value (human recombinant CYP2D6; after 15 minutes) was “most of the initial compound depleted” and the “clearance of PTX 251D by CYP2D6” value (human recombinant CYP2D6; percent compound remaining at 0-60 minutes, HPLC-MS/MS) was “rapid clearance”. The “clearance of PTX 251D by CYP2C8” value (human recombinant CYP2C8) was “minimal clearance”, the “clearance of PTX 251D by CYP1A2” value (human recombinant CYP1A2) was “minimal clearance” and the “clearance of PTX 251D by CYP2B6” value (human recombinant CYP2B6) was “minimal clearance”.

Reference: PMC8916643, “Molecular physiology of pumiliotoxin sequestration in a poison frog” (PLoS ONE, 2022)
